Source: patent US20150297629A1, “MODULATION OF RENIN-ANGIOTENSIN SYSTEM (RAS) RELATED DISEASES BY ANGIOTENSINOGEN” (Isis Pharmaceuticals, Inc,, priority 2012, published 2015)
Oligonucleotides are written 5' to 3', each unit as a sugar letter and its base; * is a phosphorothioate linkage, no mark a phosphodiester; rarer units and linkages stand in square brackets, end groups in braces. Plain capitals give the bases only. e = 2'-O-(2-methoxyethyl) (MOE); [5mC] = 5-methylcytosine; d = 2'-deoxy (DNA)

What was measured:
angiotensinogen mRNA [1] = experiment: Real-time PCR of angiotensinogen mRNA in liver and kidney of Sprague-Dawley rats; type: in vivo; conditions: relative to PBS control
Method: A control group of rats was injected with phosphate buffered saline (PBS) administered weekly for 4 weeks. The rats were sacrificed at the end of the study at week 4. Whole liver and kidney were harvested for RNA analysis and plasma was collected for protein analysis. RNA was extracted from liver tissue for real-time PCR analysis of angiotensinogen, using primer probe set RTS3550 (forward sequence [NT], designated herein as SEQ ID NO: 18; reverse sequence [NT], designated herein as SEQ ID NO: 19; probe sequence [NT], designated herein as SEQ ID NO: 20). The mRNA levels were normalized using the housekeeping gene, GAPDH. […] Results are presented as percent inhibition of angiotensinogen, relative to control.

Sprague-Dawley rats = experiment: Blood pressure by tail-cuff volume-pressure method in Sprague-Dawley rats; type: in vivo; conditions: after 4 wks of treatments
Method: (§1) Groups of Sprague-Dawley rats were injected with 10 mg/kg/week, 20 mg/kg/week, 40 mg/kg/week, or 80 mg/kg/week of ISIS 552668 administered for 4 weeks. A control group of rats was injected with phosphate buffered saline (PBS) administered weekly for 4 weeks. The rats were sacrificed at the end of the study at week 4. Whole liver and kidney were harvested for RNA analysis and plasma was collected for protein analysis.
(§2) Systolic blood pressure (SBP), mean arterial pressure (MAP), and diastolic blood pressure (DBP) in the rats was measured by the tail-cuff volume-pressure method (Kent Scientific, Torrington, Conn.).

angiotensinogen protein [2] = experiment: ELISA of angiotensinogen plasma levels in Sprague-Dawley rats; type: in vivo; conditions: for Percent inhibition of angiotensinogen protein: plasma, relative to PBS control
Method: as §1
(§3) Angiotensinogen plasma levels were measured by ELISA (IBL International, Toronto, Canada). […] Results are presented as percent inhibition of angiotensinogen, relative to PBS control.

angiotensinogen mRNA [3] = experiment: Real-time PCR of angiotensinogen mRNA in SHR tissues, Study 3; type: in vivo, Spontaneously hypertensive (SHR) rats; conditions: 3 weeks, oligonucleotides 100 mg/kg/week, Captopril 150 mg/kg/day
Method: (§4) A group of SHR was injected with 100 mg/kg/week of ISIS 552668 administered for 3 weeks. A control group of SHR was injected with phosphate buffered saline (PBS) administered weekly for 3 weeks. Another control group of SHR was injected with 100 mg/kg/week of a control oligonucleotide (a nucleotide not targeted to angiotensinogen) administered for 3 weeks.
[…] The mRNA levels were normalized using the housekeeping gene, GAPDH. […] Results are presented as percent inhibition of angiotensinogen, relative to control.

angiotensinogen protein [4] = experiment: ELISA of angiotensinogen plasma levels in SHR, Study 3; type: in vivo, Spontaneously hypertensive (SHR) rats; conditions: 3 weeks, oligonucleotides 100 mg/kg/week, Captopril 150 mg/kg/day
Method: as §4, §3

female SHR rats [5] = experiment: Blood pressure by tail-cuff method in female SHR rats with subsequent Captopril, Study 2; type: in vivo, Spontaneously hypertensive (SHR) rats; conditions: then Captopril 50 mg/kg/day for 4 days
Method: A control group of female SHR rats was injected with phosphate buffered saline (PBS) administered weekly for 2 weeks. Another control group constituted a group of wild-type rats injected with phosphate buffered saline (PBS) administered weekly for 2 weeks. […] Systolic blood pressure (SBP), mean arterial pressure (MAP), and diastolic blood pressure (DBP) in the rats was measured by the tail-cuff volume-pressure method (Kent Scientific, Torrington, Conn.).

female SHR rats [6] = experiment: Heart size after harvest in female SHR rats, Study 2; type: in vivo, Spontaneously hypertensive (SHR) rats; conditions: after 3 weeks, versus wild-type controls
Method: The size of the heart was measured immediately after harvest.

SHR [7] = experiment: Systolic blood pressure by tail-cuff method in SHR before and after ISIS 552668 added to chronic Captopril, Study 4; type: in vivo, Spontaneously hypertensive (SHR) rats; conditions: no Captopril
renin mRNA = experiment: Real-time PCR of kidney renin mRNA in SHR, Study 3; type: in vivo, Spontaneously hypertensive (SHR) rats; conditions: 3 weeks, oligonucleotides 100 mg/kg/week, Captopril 150 mg/kg/day, PBS = 100
Method: A control group of SHR was injected with phosphate buffered saline (PBS) administered weekly for 3 weeks. Another control group of SHR was injected with 100 mg/kg/week of a control oligonucleotide (a nucleotide not targeted to angiotensinogen) administered for 3 weeks. […] RNA was extracted from kidney tissue for real-time PCR analysis of renin, using primer probe set rRenin2 (forward sequence [NT], designated herein as SEQ ID NO: 21; reverse sequence [NT], designated herein as SEQ ID NO: 22; probe sequence [NT], designated herein as SEQ ID NO: 23). The mRNA levels were normalized using the housekeeping gene, GAPDH. […] Increase in renin in the body is deleterious to the overall health of the animal (Nguyen and Muller, The Biology of the (Pro)Renin Receptor, J Am Soc Nephrol, 2010 January, 21(1):18-23). […] Results are presented as percent expression of renin, relative to control.

angiotensinogen = experiment: Immunohistochemical analysis of liver, cardiac and kidney tissues in SHR, Study 3; type: in vivo, Spontaneously hypertensive (SHR) rats; conditions: 100 mg/kg/week for 3 weeks, compared to the PBS control
Method: as §4

female SHR rats [8] = experiment: Blood pressure by tail-cuff method in female SHR rats, Study 1; type: in vivo, Spontaneously hypertensive (SHR) rats; conditions: 2 weeks
Method: Groups of female SHR rats were injected with 50 mg/kg/week, 75 mg/kg/week, or 100 mg/kg/week of ISIS 552668 administered for 2 weeks. A control group of female SHR rats was injected with phosphate buffered saline (PBS) administered weekly for 2 weeks. Another control group constituted a group of wild-type rats injected with phosphate buffered saline (PBS) administered weekly for 2 weeks.
as §2

Dahl/SS rats = experiment: Blood pressure by tail-cuff method in Dahl/SS rats; type: in vivo, Dahl/Salt Sensititive (Dahl/SS) rats; conditions: female Dahl/SS rats, 8% NaCl diet; 3 weeks; ISIS oligonucleotides 40 mg/kg/week, Captopril 150 mg/kg daily
Method: The rats were fed a diet with 8% NaCl. A group of female Dahl/SS rats was injected with 40 mg/kg/week of ISIS 552668 administered for 3 weeks. A group of female Dahl/SS rats was injected with 40 mg/kg/week of control oligonucleotides ISIS 141923 administered for 3 weeks. […] A control group of female Dahl/SS rats was injected with phosphate buffered saline (PBS) administered weekly for 3 weeks. Another control group constituted a group of Dahl/Salt Resistant (Dahl/SR) rats injected with phosphate buffered saline (PBS) administered weekly for 3 weeks.
Systolic blood pressure (SBP), mean arterial pressure (MAP), and diastolic blood pressure (DBP) in the rats was measured by the tail-cuff volume-pressure method (Kent Scientific). The results are presented in Table 12, expressed as the percent decrease in blood pressure compared to the control SHR group.

SHR [9] = experiment: Mean arterial pressure by tail-cuff method in SHR, Study 3; type: in vivo, Spontaneously hypertensive (SHR) rats; conditions: ISIS 552668 and control oligonucleotide 100 mg/kg/week, Captopril 150 mg/kg/day
Method: A control group of SHR was injected with phosphate buffered saline (PBS) administered weekly for 3 weeks. Another control group of SHR was injected with 100 mg/kg/week of a control oligonucleotide (a nucleotide not targeted to angiotensinogen) administered for 3 weeks. […] Mean arterial pressure (MAP) in the rats was measured by the tail-cuff volume-pressure method (Kent Scientific, Torrington, Conn.).

## ISIS 552668: 5-10-5 MOE gapmer CACTGATTTTTGCCCAGGAT (SEQ ID NO: 17), phosphorothioate linkages, 5-methylcytosines, targeted to rat angiotensinogen (antisense e[5mC]*eA*e[5mC]*eT*eG*dA*dT*dT*dT*dT*dT*dG*d[5mC]*d[5mC]*d[5mC]*eA*eG*eG*eA*eT)
Angiotensinogen mRNA [1]; 10 mg/kg/wk for 4 weeks
  Percent inhibition of angiotensinogen mRNA, Kidney: 41%
  Percent inhibition of angiotensinogen mRNA, Liver: 19%
Angiotensinogen mRNA [1]; 20 mg/kg/wk for 4 weeks
  Percent inhibition of angiotensinogen mRNA, Kidney: 68%
  Percent inhibition of angiotensinogen mRNA, Liver: 59%
Angiotensinogen mRNA [1]; 40 mg/kg/wk for 4 weeks
  Percent inhibition of angiotensinogen mRNA, Kidney: 75%
  Percent inhibition of angiotensinogen mRNA, Liver: 86%
Angiotensinogen mRNA [1]; 80 mg/kg/wk for 4 weeks
  Percent inhibition of angiotensinogen mRNA, Kidney: 77%
  Percent inhibition of angiotensinogen mRNA, Liver: 96%
Sprague-Dawley rats; 10 mg/kg/wk
  DBP: 107 mm Hg
  MAP: 117 mm Hg
  SBP: 138 mm Hg
Sprague-Dawley rats; 40 mg/kg/wk
  DBP: 79 mm Hg
  MAP: 92 mm Hg
  SBP: 118 mm Hg
Sprague-Dawley rats; 80 mg/kg/wk
  DBP: 68 mm Hg
  MAP: 82 mm Hg
  SBP: 109 mm Hg
Angiotensinogen protein [2]; 10 mg/kg/wk for 4 weeks
  Percent inhibition of angiotensinogen protein: 25%
Angiotensinogen protein [2]; 20 mg/kg/wk for 4 weeks
  Percent inhibition of angiotensinogen protein: 38%
Angiotensinogen protein [2]; 40 mg/kg/wk for 4 weeks
  Percent inhibition of angiotensinogen protein: 83%
Angiotensinogen protein [2]; 80 mg/kg/wk for 4 weeks
  Percent inhibition of angiotensinogen protein: 93%
Angiotensinogen protein [2]; weekly dosing for 4 weeks
  ED50 for plasma protein reductions: 23.6 mg/kg
Angiotensinogen mRNA [3]
  Percent inhibition of angiotensinogen mRNA compared to the PBS control, Heart: 89%
  Percent inhibition of angiotensinogen mRNA compared to the PBS control, Kidney: 76%
  Percent inhibition of angiotensinogen mRNA compared to the PBS control, Liver: 87%
Angiotensinogen protein [4]
  Percent inhibition of angiotensinogen protein in the plasma compared to the PBS control: 91%
Female SHR rats [5]; ASO 50 mg/kg/wk for 2 weeks
  DBP: 82 mm Hg
  MAP: 97 mm Hg
  SBP: 127 mm Hg
Female SHR rats [5]; ASO 75 mg/kg/wk for 2 weeks
  DBP: 74 mm Hg
  MAP: 87 mm Hg
  SBP: 113 mm Hg
Female SHR rats [5]; ASO 100 mg/kg/wk for 2 weeks
  DBP: 81 mm Hg
  MAP: 94 mm Hg
  SBP: 120 mm Hg
Female SHR rats [6]
  Effect on heart size of the SHR rats: reversed the increase in heart size of the SHR rats to that observed in the wild-type controls
SHR [7]; ISIS 552668 50 mg/kg/week
  Blood pressure (SBP), Before ISIS 552668 dosing: 146
SHR [7]; ISIS 552668 100 mg/kg/week
  Blood pressure (SBP), Before ISIS 552668 dosing: 131
Renin mRNA
  Percent increase of kidney renin mRNA: 379%
angiotensinogen
  Angiotensinogen in liver, cardiac and kidney tissues by immunohistochemical analysis: significant reduction of angiotensinogen
Female SHR rats [8]; 50 mg/kg/wk
  DBP: 100 mm Hg
  MAP: 114 mm Hg
  SBP: 144 mm Hg
Female SHR rats [8]; 75 mg/kg/wk
  DBP: 98 mm Hg
  MAP: 111 mm Hg
  SBP: 140 mm Hg
Female SHR rats [8]; 100 mg/kg/wk
  DBP: 81 mm Hg
  MAP: 95 mm Hg
  SBP: 122 mm Hg
Dahl/SS rats
  DBP: 94 mm Hg
  MAP: 111 mm Hg
  SBP: 146 mm Hg
SHR [9]
  MAP, Week 1: 117 mm Hg
  MAP, Week 2: 104 mm Hg
  MAP, Week 3: 109 mm Hg
